Experimental data: patent US20240180822A1, “NON-NANOPARTICULATE APPLICATION FORMS OF MACROLIDES” (Nucleus Medical GmbH, priority 2021, published 2024)

Experiment: saturation solubility of tacrolimus in different solvents (HPLC in the supernatant)
Type: physicochemical
Conditions: all tested organic solvents
Experimental: Tacrolimus was dissolved in an organic solvent. Particularly, the saturation solubility of tacrolimus in different organic solvents was tested. Crystalline active ingredient was added to a defined amount of solvent at room temperature while stirring until an insoluble sediment was formed. After filtration, the concentration of active ingredient was quantified by HPLC in the supernatant.

- solubility in organic solvents: soluble in all tested organic solvents
SMILES: C=CC[C@@H]1/C=C(\C)C[C@H](C)C[C@H](OC)[C@H]2O[C@@](O)(C(=O)C(=O)N3CCCC[C@H]3C(=O)O[C@H](/C(C)=C/[C@@H]3CC[C@@H](O)[C@H](OC)C3)[C@H](C)[C@@H](O)CC1=O)[C@H](C)C[C@@H]2OC [Tacrolimus]
